Experimental data: BindingDB's records for doi:10.1021/jm00076a005 (Glaxo Group Research, 1993)

Target: T1, Gag-Pol polyprotein [588-1027]/[588-1147] (Human immunodeficiency virus 1, UniProt P04585)
T1 construct: 588-1027; 588-1147
Assay: HIV-1 RT Assay
From the text: The IC50 of reverse transcriptase is the concentration that inhibits 50% of recombinant HIV-1 RT RNA-directed DNA polymerase activity in vitro.

In the case of `Cc1nc(CCCCCCC(=O)c2ccccc2)n2nc(-n3cncn3)ccc12` [7-[5-methyl-2-(1H-1,2,4-triazol-1-yl)imidazo[1,5-a]pyridazin-7-yl]-1-phenylheptan-1-one], the IC50 is reported as 100 nM.
With `Cc1nc(CCCCCCC(=O)c2ccccc2)n2nc(-n3cncc3C)ccc12` [7-[5-methyl-2-(5-methyl-1H-imidazol-1-yl)imidazo[1,5-a]pyridazin-7-yl]-1-phenylheptan-1-one] the IC50 was 100 nM.
`Cc1nc(CCCCCO)n2nc(Cl)ccc12` [5-{2-chloro-5-methylimidazo[1,5-a]pyridazin-7-yl}pentan-1-ol] was tested, and the IC50 (pH 8, 37 °C) was 100000 nM.
